From US20220324833A1, “PROCESS FOR PREPARATION OF 2-HYDROXY-6-((2-(1-ISOPROPYL-1H-PYRAZOL-5-YL)PYRIDIN-3-YL)METHOXY)BENZALDEHYDE” (Global Blood Therapeutics, Inc., priority 2020, published 2022)

Assay: Approximate solubility at ambient temperature
Format: physicochemical
Method: Approximate solubility values were measured for the as-received material at ambient temperature. […] The approximate solubility values were considered in the design of form screen experiments.

CC(C)n1nccc1-c1ncccc1CO [compound (3)]
approximate solubility (MTBE, toluene, water, and select solvent mixtures): Limited to intermediate solubility | approximate solubility (heptane): low solubility | approximate solubility (most of the organic solvents tested): high solubility
